Values of other authors as cited in US9822391B2, “Methods for monitoring methotrexate therapy” (priority 2010, dated 2017).

Experiments:
[1] = approximately 5-10% of individuals who do not metabolize MTX effectively; within the first few hours following once weekly administration; Chladek et al., 1998
[2] = molecular target: AICAR transformylase (Homo sapiens, UniProt P31939); details: relative to MTX; Allegra et al., 1987
Sequence of AICAR transformylase (P31939 whole entry, species assumed): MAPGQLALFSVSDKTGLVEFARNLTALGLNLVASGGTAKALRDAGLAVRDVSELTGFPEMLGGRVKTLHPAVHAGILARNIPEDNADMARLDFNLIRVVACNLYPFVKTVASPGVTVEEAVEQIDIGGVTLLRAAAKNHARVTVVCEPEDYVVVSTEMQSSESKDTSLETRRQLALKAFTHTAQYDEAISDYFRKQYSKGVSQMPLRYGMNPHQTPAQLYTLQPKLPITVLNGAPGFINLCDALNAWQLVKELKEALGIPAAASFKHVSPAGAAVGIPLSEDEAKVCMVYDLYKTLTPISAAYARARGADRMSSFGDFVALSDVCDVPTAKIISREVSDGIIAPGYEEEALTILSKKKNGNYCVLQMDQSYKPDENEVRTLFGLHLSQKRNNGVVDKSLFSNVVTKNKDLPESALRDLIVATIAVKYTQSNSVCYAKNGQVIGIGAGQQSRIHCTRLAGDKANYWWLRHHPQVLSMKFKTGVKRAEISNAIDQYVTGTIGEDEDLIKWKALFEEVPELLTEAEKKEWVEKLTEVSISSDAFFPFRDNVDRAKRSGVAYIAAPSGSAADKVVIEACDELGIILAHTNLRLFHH

CN(Cc1cnc2nc(N)nc(N)c2n1)c1ccc(C(=O)N[C@@H](CCC(=O)O)C(=O)O)cc1 [MTX, Methotrexate]
excretion of the drug in urine [1]: virtually the totality of the drug excreted unchanged in the urine

CN(Cc1cnc2nc(N)nc(N)c2n1)c1ccc(C(=O)NC(CCC(=O)NC(CCC(=O)NC(CCC(=O)NC(CCC(=O)NC(CCC(=O)O)C(=O)O)C(=O)O)C(=O)O)C(=O)O)C(=O)O)cc1 (centres unmarked) [pentaglutamylated form of MTX]
fold more potent than MTX itself against AICAR transformylase [2]: 2500 fold
